What is called IC50 is the concentration that inhibits the measured activity by half. Higher therefore signals weaker potency in that assay.

This assay has as its target T1, Protein deacetylase HDAC6 (Homo sapiens, UniProt Q9UBN7).
T1 sequence (Q9UBN7 whole entry): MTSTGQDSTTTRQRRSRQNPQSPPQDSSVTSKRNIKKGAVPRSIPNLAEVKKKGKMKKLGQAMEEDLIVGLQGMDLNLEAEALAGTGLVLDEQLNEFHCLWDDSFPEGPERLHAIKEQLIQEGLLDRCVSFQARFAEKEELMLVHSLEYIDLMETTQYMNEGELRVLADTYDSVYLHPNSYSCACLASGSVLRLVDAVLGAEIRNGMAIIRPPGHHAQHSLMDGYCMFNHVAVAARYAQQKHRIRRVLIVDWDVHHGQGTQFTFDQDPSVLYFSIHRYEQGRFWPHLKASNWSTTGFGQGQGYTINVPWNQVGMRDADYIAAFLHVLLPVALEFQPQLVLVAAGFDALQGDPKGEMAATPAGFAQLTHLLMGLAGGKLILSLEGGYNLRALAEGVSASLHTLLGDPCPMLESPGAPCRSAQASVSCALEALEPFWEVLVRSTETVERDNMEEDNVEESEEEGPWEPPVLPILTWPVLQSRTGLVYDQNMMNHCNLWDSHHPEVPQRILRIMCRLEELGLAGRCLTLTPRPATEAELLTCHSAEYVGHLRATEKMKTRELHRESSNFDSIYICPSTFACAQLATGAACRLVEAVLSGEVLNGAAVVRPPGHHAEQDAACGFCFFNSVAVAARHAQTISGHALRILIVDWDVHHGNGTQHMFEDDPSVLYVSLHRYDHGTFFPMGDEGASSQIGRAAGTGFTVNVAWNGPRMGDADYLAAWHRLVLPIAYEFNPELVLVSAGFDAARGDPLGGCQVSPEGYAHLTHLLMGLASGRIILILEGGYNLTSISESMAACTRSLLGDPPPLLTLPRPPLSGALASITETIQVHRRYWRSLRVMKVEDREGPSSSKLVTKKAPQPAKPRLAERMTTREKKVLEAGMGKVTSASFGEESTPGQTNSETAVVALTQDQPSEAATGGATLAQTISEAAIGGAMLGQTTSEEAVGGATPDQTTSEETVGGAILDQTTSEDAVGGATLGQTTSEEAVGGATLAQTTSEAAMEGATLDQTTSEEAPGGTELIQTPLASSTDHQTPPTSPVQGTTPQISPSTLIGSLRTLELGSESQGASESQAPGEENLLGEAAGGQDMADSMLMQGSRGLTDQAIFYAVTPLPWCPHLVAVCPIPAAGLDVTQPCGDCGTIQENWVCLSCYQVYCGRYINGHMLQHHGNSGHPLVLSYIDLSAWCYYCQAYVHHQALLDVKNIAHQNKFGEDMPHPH
Nature of the assay: BIOMOL Fluorescent-Based HDAC Assay: The BIOMOL fluorescent-based HDAC activity assay has been applied in In vitro HDACi assay for determination of IC50 values of the compounds of this invention. The assay has been carried out in white 96 well formats according to the BIOMOL's method. In order to optimize the experiment conditions and optinal, the exact concentration range of the Deacetylated Standard (biomol, KI-142) that will vary depending on the flurimeter model, the gain setting and the exact excitation and emission wavelengths used. We recommend diluting some of the standard to a relatively low concentration with Assay Buffer (an appropriate series of Deacetylated Standard dilutions from 20 uM to 0.3125 uM), and Assay Buffer as a time zero to a set of wells on the microtiter plate. Experimental to samples (five dilute groups: 100 uM, 20 uM, 4 uM, 0.8 uM, 0.16 uM) should be compared to a time zero.

With `CCN(CC)CCSc1ccc(/C=C/C(=O)NO)cc1NS(=O)(=O)c1ccc(C)cc1`, inhibition was half-maximal at 247 nM (IC50). In other words, the sub-micromolar range.
`CCN(CC)CCSc1ccc(/C=C/C(=O)NO)cc1NC(=O)C(Cl)Cl` returned an IC50 of 313 nM.

For the origin of these results see ChEMBL document CHEMBL3638931, “Histone deacetylase inhibitors, process for preparation and uses thereof” (2014).
